The target in test [1] is T1, BRD3 (Homo sapiens, UniProt Q15059).
T1 construct: endogenous in cells; host or cells: HCT116
The experiment in a line: BRD protein family degradation in HCT116 cells, Western blot: BRD3. The class given is cell-based. The settings on record: 1:1 with MDM2 ligands 8310 and 8312 (each), HCT116, 24 h, 100 nM-10 μM. On the procedure:
Namalwa, Ramosm HeLa, MCF7, or HT29 HCT116 cells (2.5-3×10^6) were treated for 24 hours with the indicated compounds solubilized in DMSO. The cells were washed in ice-cold PBS and were then lysed in RIPA lysis buffer (150 mM NaCl, 5 mM EDTA, 1% NP-40, 0.5% sodium deoxycholate, 0.1% SDS, 50 mM Tris, pH 8.0.) with Roche protease inhibitor complete cocktail and phosphatase inhibitors (10 mM sodium fluoride, 10 mM sodium pyrophosphate, 1 mM sodium orthovanadate and 20 mM β-glycerophosphate). The total protein concentrations were determined by Bradford Protein Assay (Pierce) and 10-20 μg of protein was loaded onto 4-15% Tris-Glycine gradient gels (Biorad). After standard gel electrophoresis, the separated proteins were transferred to PVDF membrane by wet transfer. The immunoblots were then blocked for 1 hour in 5% skim milk in TBST or 5% BSA in TBST, according to manufacturer's instructions, before an overnight incubation at 4° C. with indicated antibodies and membranes. […] Signal was detected with ECL Western Blotting Substrate (Pierce) and X-ray film processed with a Konica SRX-101 X-ray film processor or captured by Bio-Rad's Chemidoc Imaging system. […]

For test [2], the target named is BRD4 (Homo sapiens, UniProt O60885). The experiment in a line: CURE-PRO-mediated BRD4 degradation in MCF7 cells, WES (ProteinSimple). Type of test: cell-based. Also noted: endogenous in cells. On the procedure:
WES Simple analysis was performed on WES system (ProteinSimple-Biotechne) according to the manufacturer's instructions. Total protein concentrations of cell lysates were determined by the Pierce BCA kit (Thermo Fisher). 3 μL of 0.3 μg/μL of the protein lysate was loaded onto a 12- to 230-kDa WES assay plate (ProteinSimple) where 300 nL sample was withdrawn through a capillary, subjected to electrophoretic separation of proteins by size, and followed by the simultaneous, HRP-based detection of proteins using the Anti-Rabbit Detection Module (Proteinsimple: #DM-001). The electropherograms were checked then the automatic peak detection was manually corrected if it was required.
MCF7 cells (3×10^6) were treated for 4-24 hours continually (FIG. 72), or treated for 4 h, washed and incubated for a further 4-24 h with the compounds solubilized in DMSO. Compounds were added at 10 μM each. Cells were washed, lysed, and clarified by centrifugation. The total protein concentration was quantified by the BCA method (ThermoFisher Sciences). Standardized protein samples were electrophoresed and imaged as described in the WES Proteinsimple section above. FIG. 69 depicts the CURE-PRO-mediated BRD4 degradation for the BRD-E50 monomer, and VHL ligand, 8305.
MCF7 cells (3×10^6) were treated for 24 hours with the compounds solubilized in DMSO. CURE-PRO monomers were added at 10 μM each and the proteasomal inhibitors at 1 μM. Standardized protein samples were electrophoresed and imaged as described in the WES Proteinsimple section above. FIGS. 73 and 75 depicts the dependence of the proteasome for CURE-PRO-mediated BRD4 degradation.
MCF7 cells (3×10^6) were treated for 24 hours with the compounds solubilized in DMSO. CURE-PRO monomers were added at 10 μM. FIG. 74 depicts the CURE-PRO-mediated BRD4 degradation for the BRD-E50 monomer, and VHL ligand, 8305 combined in a 1:1 ratio after 24 h.

Each structure is given as a SMILES string. Entries after “also recorded” stand apart in the source; their conditions may differ.

T1 sequence (Q15059 whole entry): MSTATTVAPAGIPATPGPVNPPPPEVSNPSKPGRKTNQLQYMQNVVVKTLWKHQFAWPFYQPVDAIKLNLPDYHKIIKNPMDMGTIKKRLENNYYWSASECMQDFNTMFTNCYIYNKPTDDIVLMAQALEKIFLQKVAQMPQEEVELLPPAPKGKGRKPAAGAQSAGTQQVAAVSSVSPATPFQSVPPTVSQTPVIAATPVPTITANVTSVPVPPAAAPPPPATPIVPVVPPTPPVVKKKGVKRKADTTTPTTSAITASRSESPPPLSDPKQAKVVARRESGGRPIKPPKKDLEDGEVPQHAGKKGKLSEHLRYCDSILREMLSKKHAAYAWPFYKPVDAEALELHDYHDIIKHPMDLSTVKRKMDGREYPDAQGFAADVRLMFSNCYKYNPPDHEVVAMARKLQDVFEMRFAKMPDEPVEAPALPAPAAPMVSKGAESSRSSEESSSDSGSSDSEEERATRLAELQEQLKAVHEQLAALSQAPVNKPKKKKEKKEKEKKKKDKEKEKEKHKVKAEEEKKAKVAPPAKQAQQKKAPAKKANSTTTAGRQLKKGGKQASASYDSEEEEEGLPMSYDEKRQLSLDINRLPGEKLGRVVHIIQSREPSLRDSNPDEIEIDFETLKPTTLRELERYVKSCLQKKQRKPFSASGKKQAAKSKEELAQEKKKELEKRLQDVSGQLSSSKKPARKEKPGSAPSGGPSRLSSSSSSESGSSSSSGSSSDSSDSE

Take `CCNC(=O)C[C@@H]1N=C(c2ccc(Cl)cc2)c2cc(OCCOCCNC(=O)c3cccc(O)c3O)ccc2-n2c(C)nnc21` [BRD-N39, N-(2-(2-(((4S)-6-(4-chlorophenyl)-4-(2-(ethylamino)-2-oxoethyl)-1-methyl-4H-benzo[f][1,2,4]triazolo[4,3-a][1,4]diazepin-8-yl)oxy)ethoxy)ethyl)-2,3-dihydroxybenzamide]: in test [1], the BRD3 degradation result is given as “degradation of BRD3; also recorded: Degradation is evident”.

Turning to `CCNC(=O)C[C@@H]1N=C(c2ccc(Cl)cc2)c2cc(OCCCCC(=O)Nc3cccc(B(O)O)c3)ccc2-n2c(C)nnc21` [BRD-E20, (3-(5-(((4S)-6-(4-chlorophenyl)-4-(2-(ethylamino)-2-oxoethyl)-1-methyl-4H-benzo[f][1,2,4]triazolo[4,3-a][1,4]diazepin-8-yl)oxy)pentanamido)phenyl)boronic acid], the “BRD4 degradation with proteasome inhibitors” value in test [2] (1:1 with 8305 at 10 μM, pre-incubation with MG-132 and Carfilzomib 1 μM, MCF7) is “inhibited by the pre-incubation with MG-132 and Carfilzomib; also recorded: inhibited with the proteasome inhibitors, MG-132 and Carfilzomib”. Moreover, the BRD4 degradation entry in test [2] (1:1 with VHL ligand 8305, MCF7, 10 μM each, 4-24 h) was “caused BRD4 degradation; also recorded: marked BRD4 degradation”; in test [2] (co-incubated with VHL ligand 8304, MCF7, 10 μM each), “failed to induce BRD4 degradation”.

(Values after patent US20230285570A1, “THERAPEUTICALLY USEFUL CURE-PRO MOLECULES FOR E3 LIGASE MEDIATED DEGRADATION OF PROTEINS, AND METHODS OF MAKING AND USING THEM” (CORNELL UNIVERSITY, priority 2020, published 2023).)
